Counter-ions that a name gives are not always drawn.
Legend:
Format in all cases: cell-based
[1] = system: tetracycline sensitive and resistant Gram-positive and Gram-negative bacteria; test: In vitro antibacterial evaluation, statements on the whole panel
Description: (§1) The minimum inhibitory concentration (MIC), the lowest concentration of the antibiotic which inhibits growth of the test organism, is determined by the microtiter broth dilution method using 0.1 ml Muller-Hinton II broth (Baltimore Biological Laboratories) per well. A suitable oxygen scavenger (i.e., cysteine or dithiothreitol) is added to the assay medium for the testing of compounds according to Formula I because of the sensitivity of those compounds to oxidation. An inoculum level of 1-5×10^5 CFU/ml and a range of antibiotic concentrations (32 0.004 μg/ml) are used.

S. marcescens FPOR 87-33 = test: MIC, microtiter broth dilution; conditions: Serratia marcescens, FPOR8733, 18 h
Description: as §1

E. coli ATCC 25922 = test: MIC, microtiter broth dilution; conditions: Escherichia coli, ATCC25922, 18 h
Description: as §1

[2] = system: E. coli UBMS 89-2 (tetracycline-sensitive); test: MIC, microtiter broth dilution; conditions: Escherichia coli, 18 h
Description: as §1

P. aeruginosa ATCC 27853 = test: MIC, microtiter broth dilution; conditions: Pseudomonas aeruginosa, ATCC27853, 18 h
Description: as §1

[3] = system: S. aureus IVES 1983 (methicillin-resistant); test: MIC, microtiter broth dilution; conditions: Staphylococcus aureus, 18 h
Description: as §1

[4] = system: S. haemolyticus AVAH 88-3; test: MIC, microtiter broth dilution; conditions: Staphylococcus haemolyticus, AVAH883, 18 h; S. haemolyticus AVAH 88-3; in the presence of cysteine (0.05%); read-out: MIC
Description: as §1

[5] = system: S. aureus UBMS 90-3 (tetracycline-sensitive); test: MIC, microtiter broth dilution; conditions: Staphylococcus aureus, 18 h
Description: as §1

E. faecalis ATCC 29212 = test: MIC, microtiter broth dilution; conditions: Enterococcus faecalis, ATCC29212, 18 h
Description: as §1

[6] = system: S. aureus IVES 2943 (methicillin-resistant); test: MIC, microtiter broth dilution; conditions: Staphylococcus aureus, 18 h
Description: as §1

[7] = system: E. coli UBMS 90-5 (tetracycline-sensitive); test: MIC, microtiter broth dilution; conditions: Escherichia coli, 18 h
Description: as §1

M. morganii NEMC 87-119 = test: MIC, microtiter broth dilution; conditions: Morganella morganii, NEMC87119, 18 h
Description: as §1

E. coli UBMS 88-1 (tetB) = test: microbe, parasite or virus in culture; conditions: Escherichia coli, 18 h
Description: as §1

[8] = system: S. aureus UBMS 88-5 (tetM); test: microbe, parasite or virus in culture; conditions: Staphylococcus aureus, 18 h
Description: as §1

[9] = system: S. aureus UBMS 88-7 (tetK); test: microbe, parasite or virus in culture; conditions: Staphylococcus aureus, 18 h
Description: as §1

[10] = system: S. aureus UBMS 88-4 (tetracycline-sensitive); test: MIC, microtiter broth dilution; conditions: Staphylococcus aureus, 18 h, no cysteine stated
Description: as §1

[11] = system: E. coli UBMS 88-2 (tetracycline-sensitive); test: MIC, microtiter broth dilution; conditions: Escherichia coli, 18 h, no cysteine stated
Description: as §1

S. aureus ATCC 29213 = test: MIC, microtiter broth dilution; conditions: Staphylococcus aureus, ATCC29213, 18 h, no cysteine stated
Description: as §1

[12] = system: X. maltophilia FPOR 87-210; test: MIC, microtiter broth dilution; conditions: Stenotrophomonas maltophilia, FPOR87210, 18 h, no cysteine stated
Description: as §1

E. coli UBMS 90-4 (tetM) = test: MIC, microtiter broth dilution; conditions: Escherichia coli, 18 h
Description: as §1

[13] = in the presence of cysteine (0.05%)

CCN(CC)c1cc(N)c(O)c2c1C[C@H]1C[C@H]3[C@H](N(C)C)C(O)=C(C(N)=O)C(=O)[C@@]3(O)C(O)=C1C2=O [C, 9-Amino-7-(diethylamino)-6-demethyl-6-deoxytetracycline sulfate]
antibacterial activity versus D ([1]; comparator D): enhancement of antibacterial activity
MIC (S. marcescens FPOR 87-33; [13]): 4 mg/L
MIC (E. coli ATCC 25922; [13]): 0.5 mg/L
MIC [2, 13]: 0.5 mg/L
MIC (P. aeruginosa ATCC 27853; [13]): 8 mg/L
MIC [3, 13]: 0.25 mg/L
MIC [4]: 0.12 mg/L
MIC [5, 13]: 0.03 mg/L
MIC (E. faecalis ATCC 29212; [13]): 0.12 mg/L
MIC [6, 13]: 0.25 mg/L
MIC [7, 13]: 1 mg/L
MIC (M. morganii NEMC 87-119; [13]): 2 mg/L

CCN(CC)c1ccc(O)c2c1C[C@H]1C[C@H]3[C@H](N(C)C)C(O)=C(C(N)=O)C(=O)[C@@]3(O)C(O)=C1C2=O [D, 7-(Diethylamino)-6-demethyl-6-deoxytetracycline sulfate]
Antibacterial potency in the presence of cysteine ([1]; in the presence of cysteine versus without): not enhanced
MIC (E. coli UBMS 88-1 (tetB)): 32 mg/L
MIC [8]: 16 mg/L
MIC [9]: 0.12 mg/L
MIC (S. marcescens FPOR 87-33; no cysteine stated): 32 mg/L
MIC [10]: 0.03 mg/L
MIC (E. coli ATCC 25922; no cysteine stated): 1 mg/L
MIC ([2]; no cysteine stated): 4 mg/L
MIC (P. aeruginosa ATCC 27853; no cysteine stated): 32 mg/L
MIC ([3]; no cysteine stated): 8 mg/L
MIC ([5]; no cysteine stated): 0.03 mg/L
MIC (E. faecalis ATCC 29212; no cysteine stated): 8 mg/L
MIC [11]: 2 mg/L
MIC (S. aureus ATCC 29213): < 0.015 mg/L
MIC ([6]; no cysteine stated): 8 mg/L
MIC ([7]; no cysteine stated): 2 mg/L
MIC [12]: 0.25 mg/L
MIC (E. coli UBMS 90-4 (tetM)): > 32 mg/L
MIC (M. morganii NEMC 87-119; no cysteine stated): 32 mg/L

— US5281628A, “9-amino-7-(substituted)-6-demethyl-6-deoxytetracyclines” (American Cyanamid Company, priority 1991, dated 1994)
